Starred links: 1 amine or outer side, 2 acyl side, 3 side chain; linkers in the order of their positions; H or OH if unused. Positions of bridges follow the written chain, without caps; N, C: chain ends. Residues, ends and D or L forms follow the SMILES beside them. Groups on a side chain read outwards from the residue. *: point of attachment. C20 diacid = O=C(O)CCCCCCCCCCCCCCCCCCC(=O)*; γGlu = O=C(O)[C@H](CCC(=O)[*:2])N[*:1]; AEEA = NCCOCCOCC(=O)O
Experiment: Assay (III) ThT fibrillation assay for physical stability
Format: physicochemical
Details: for ThT pH 4.0 lag time: pH 4.0, ThT fibrillation assay
Summary of the method: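 Freshly prepared, pH-adjusted formulations with 1 μM ThT incubated at 37 °C under 960 rpm orbital shaking (1 mm), fluorescence (ex 444, em 485 nm) read every 20 min. […] Peptide content before and after measured by reverse-phase HPLC against pramlintide standard.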

| ThT pH 4.0 lag time (physical stability in fibrillogenesis assay) [h] | ThT pH 4.0 lag time [h] | Compound |
| --- | --- | --- |
| >45 | >45 | CC[C@H](C)[C@H](NC(=O)[C@@H]1CCCN1C(=O)CNC(=O)[C@H](Cc1ccccc1)NC(=O)[C@H](CC(N)=O)NC(=O)[C@H](CC(N)=O)NC(=O)[C@H](CO)NC(=O)[C@H](CO)NC(=O)[C@H](Cc1c[nH]cn1)NC(=O)[C@H](CCCNC(=N)N)NC(=O)[C@H](CC(C)C)NC(=O)[C@H](Cc1ccccc1)NC(=O)[C@H](CCC(=O)O)NC(=O)[C@H](C)NC(=O)[C@H](CC(C)C)NC(=O)[C@H](CCCNC(=N)N)NC(=O)[C@H](CCC(N)=O)NC(=O)[C@@H](NC(=O)[C@H](C)NC(=O)[C@@H]1CSSC[C@H](NC(=O)[C@H](Cc2c[nH]cn2)NC(=O)CC[C@H](NC(=O)CCCCCCCCCCCCCCCCCCC(=O)O)C(=O)O)C(=O)N[C@@H](CC(N)=O)C(=O)N[C@@H]([C@@H](C)O)C(=O)N[C@@H](C)C(=O)N[C@@H]([C@@H](C)O)C(=O)N1)[C@@H](C)O)C(=O)N[C@@H](CC(C)C)C(=O)N1CCC[C@H]1C(=O)N1CCC[C@H]1C(=O)N[C@H](C(=O)N[C@@H](CC(N)=O)C(=O)N[C@H](C(=O)NCC(=O)N[C@@H](CO)C(=O)N[C@@H](CC(N)=O)C(=O)N[C@H](C(=O)N1CCC[C@H]1C(N)=O)[C@@H](C)O)C(C)C)[C@@H](C)O [Example 90, N-alpha-[(S)-4-Carboxy-4-(19-carboxynonadecanoylamino)butyryl]-[His1,Glu14,Arg17,Pro37]-pramlintide] ({C20 diacid-γGlu}-HCNTATCATQRLAEFLRHSSNNFGPILPPTNVGSNTP-NH2; disulfide 2-7) |
| >45 | – | CC[C@H](C)[C@H](NC(=O)[C@@H]1CCCN1C(=O)CNC(=O)[C@H](Cc1ccccc1)NC(=O)[C@H](CC(N)=O)NC(=O)[C@H](CCCCNC(=O)COCCOCCNC(=O)COCCOCCNC(=O)CC[C@H](NC(=O)CCCCCCCCCCCCCCCCCCC(=O)O)C(=O)O)NC(=O)[C@H](CO)NC(=O)[C@H](CO)NC(=O)[C@H](CCCNC(=N)N)NC(=O)[C@@H](NC(=O)[C@H](CC(C)C)NC(=O)[C@H](Cc1ccccc1)NC(=O)[C@H](CCC(=O)O)NC(=O)[C@H](C)NC(=O)[C@H](CC(C)C)NC(=O)[C@H](CCCNC(=N)N)NC(=O)[C@H](CCC(N)=O)NC(=O)[C@@H](NC(=O)[C@H](C)NC(=O)[C@@H]1CSSC[C@H](NC(=O)[C@@H](N)CCCCN)C(=O)N[C@@H](CC(N)=O)C(=O)N[C@@H]([C@@H](C)O)C(=O)N[C@@H](C)C(=O)N[C@@H]([C@@H](C)O)C(=O)N1)[C@@H](C)O)C(C)C)C(=O)N[C@@H](CC(C)C)C(=O)N[C@@H](CO)C(=O)N[C@@H](CCCNC(=N)N)C(=O)N[C@H](C(=O)N[C@@H](CC(N)=O)C(=O)N[C@H](C(=O)NCC(=O)N[C@@H](CO)C(=O)N[C@@H](CCCNC(=N)N)C(=O)N[C@H](C(=O)N[C@@H](Cc1ccc(O)cc1)C(N)=O)[C@@H](C)O)C(C)C)[C@@H](C)O [Example 150, N-epsilon21-[2-(2-{2-[2-(2-{2-[(S)-4-Carboxy-4-(19-carboxyheptadecanoylamino)butyrylamino]ethoxy}ethoxy)acetylamino]ethoxy}ethoxy)acetyl]-[Glu14,Arg18,Lys21,Ser28,Arg29,Arg35]-pramlintide] (H-KCNTATCATQRLAEFLVRSSK([AEEA-AEEA-γGlu-C20 diacid])NFGPILSRTNVGSRTY-NH2; disulfide 2-7) |
| – | >45 | CC[C@H](C)[C@H](NC(=O)[C@@H]1CCCN1C(=O)CNC(=O)[C@H](Cc1ccccc1)NC(=O)[C@H](CC(N)=O)NC(=O)[C@H](CO)NC(=O)[C@H](CO)NC(=O)[C@H](CO)NC(=O)[C@H](Cc1c[nH]cn1)NC(=O)[C@H](CCCNC(=N)N)NC(=O)[C@H](CC(C)C)NC(=O)[C@H](Cc1ccccc1)NC(=O)[C@H](CCC(=O)O)NC(=O)[C@H](C)NC(=O)[C@H](CC(C)C)NC(=O)[C@H](CCCNC(=N)N)NC(=O)[C@H](CCC(N)=O)NC(=O)[C@@H](NC(=O)[C@H](C)NC(=O)[C@@H]1CSSC[C@H](NC(=O)[C@H](Cc2c[nH]cn2)NC(=O)CC[C@H](NC(=O)CCCCCCCCCCCCCCCCCCC(=O)O)C(=O)O)C(=O)N[C@@H](CC(N)=O)C(=O)N[C@@H]([C@@H](C)O)C(=O)N[C@@H](C)C(=O)N[C@@H]([C@@H](C)O)C(=O)N1)[C@@H](C)O)C(=O)N[C@@H](CC(C)C)C(=O)N[C@@H](CO)C(=O)N[C@@H](CO)C(=O)N[C@H](C(=O)N[C@@H](CC(N)=O)C(=O)N[C@H](C(=O)NCC(=O)N[C@@H](CO)C(=O)N[C@@H](Cc1c[nH]cn1)C(=O)N[C@H](C(=O)N[C@@H](Cc1ccc(O)cc1)C(N)=O)[C@@H](C)O)C(C)C)[C@@H](C)O [Example 111, N-alpha-[(S)-4-Carboxy-4-(19-carboxynonadecanoylamino)butyryl]-[His1,Glu14,Arg17,Ser21,Ser28,Ser29,His35]-pramlintide] ({C20 diacid-γGlu}-HCNTATCATQRLAEFLRHSSSNFGPILSSTNVGSHTY-NH2; disulfide 2-7) |
